Test results taken from patent publication US8343959B2, “N-phenyl-(piperazinyl or homopiperazinyl)-benzenesulfonamide or benzenesulfonyl-phenyl-(piperazine or homopiperazine) compounds suitable for treating disorders that respond to modulation of the serotonin 5-HT6 receptor” (Abbott GmbH & Co. KG, priority 2009, dated 2013).
Structures can show the parent of a compound that is named as a salt.

Molecular target: T1, h-5-HT6 receptor (Homo sapiens, UniProt P50406)
T1 construct: expressed in transfected cells
Assay: 5-HT6 receptor binding assay (displacement of [3H]-LSD)
Conditions: membranes of HEK293 cells expressing h-5-HT6 receptor, 1 nM [3H]-LSD; read-out: Ki (5HT6)

T1 sequence (P50406 whole entry): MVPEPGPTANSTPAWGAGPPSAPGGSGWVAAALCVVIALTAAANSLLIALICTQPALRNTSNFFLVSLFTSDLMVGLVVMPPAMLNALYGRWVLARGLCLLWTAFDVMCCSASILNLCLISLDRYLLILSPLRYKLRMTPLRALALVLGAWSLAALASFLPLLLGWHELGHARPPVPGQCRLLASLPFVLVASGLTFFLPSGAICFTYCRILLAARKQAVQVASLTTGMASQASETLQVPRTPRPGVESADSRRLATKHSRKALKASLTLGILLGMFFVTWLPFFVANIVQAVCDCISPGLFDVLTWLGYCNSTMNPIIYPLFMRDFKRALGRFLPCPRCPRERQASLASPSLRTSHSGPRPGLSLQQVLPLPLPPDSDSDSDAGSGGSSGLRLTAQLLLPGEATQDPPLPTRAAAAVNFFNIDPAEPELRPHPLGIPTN

Row | SMILES | Ki [nM]
1 | COc1ccc(S(=O)(=O)Nc2ccc(OC(F)F)cc2)cc1N1CCN(C)CC1 [Example 95, N-(4-Difluoromethoxy-phenyl)-4-methoxy-3-(4-methyl-piperazin-1-yl)-benzenesulfonamide hydrochloride] | < 10
2 | Cc1ccc(S(=O)(=O)Nc2cccc(OC(F)F)c2)cc1N1CCCNCC1 [Example 96, 3-[1,4]Diazepan-1-yl-N-(3-difluoromethoxy-phenyl)-4-methyl-benzenesulfonamide hydrochloride] | < 50
3 | Cc1ccc(S(=O)(=O)Nc2ccccc2OC(F)F)cc1N1CCCNCC1 [Example 97, 3-[1,4]Diazepan-1-yl-N-(2-difluoromethoxy-phenyl)-4-methyl-benzenesulfonamide hydrochloride] | < 10
4 | Cc1ccc(NS(=O)(=O)c2ccc(C)c(N3CCCNCC3)c2)cc1OC(F)F [Example 98, 3-[1,4]Diazepan-1-yl-N-(3-difluoromethoxy-4-methyl-phenyl)-4-methyl-benzenesulfonamide hydrochloride] | < 50
5 | Cc1ccc(NS(=O)(=O)c2ccc(C)c(N3CCCN(C)CC3)c2)cc1OC(F)F [Example 99, N-(3-Difluoromethoxy-4-methyl-phenyl)-4-methyl-3-(4-methyl-[1,4]diazepan-1-yl)-benzenesulfonamide hydrochloride] | < 500
6 | Cc1ccc(S(=O)(=O)Nc2ccccc2OC(F)F)cc1N1CCCN(C)CC1 [Example 100, N-(2-Difluoromethoxy-phenyl)-4-methyl-3-(4-methyl-[1,4]diazepan-1-yl)-benzenesulfonamide hydrochloride] | < 10
7 | Cc1ccc(S(=O)(=O)Nc2cccc(OC(F)F)c2)cc1N1CCCN(C)CC1 [Example 101, N-(3-Difluoromethoxy-phenyl)-4-methyl-3-(4-methyl-[1,4]diazepan-1-yl)-benzenesulfonamide hydrochloride] | < 10
8 | CCOc1ccc(S(=O)(=O)Nc2ccc(C)cc2OC(F)F)cc1N1CCNCC1 [Example 106, N-(2-Difluoromethoxy-4-methylphenyl)-4-ethoxy-3-piperazin-1-yl benzenesulfonamide] | < 10
